What all share (assay): NPY receptor functional assay (cAMP, HEK-CNG cells, ACTOne membrane potential dye)
Holding throughout (type): cell-based

In assay [1] the target is T1, human Y5 receptor (Homo sapiens, UniProt Q15761).
T1 sequence (Q15761 1-445): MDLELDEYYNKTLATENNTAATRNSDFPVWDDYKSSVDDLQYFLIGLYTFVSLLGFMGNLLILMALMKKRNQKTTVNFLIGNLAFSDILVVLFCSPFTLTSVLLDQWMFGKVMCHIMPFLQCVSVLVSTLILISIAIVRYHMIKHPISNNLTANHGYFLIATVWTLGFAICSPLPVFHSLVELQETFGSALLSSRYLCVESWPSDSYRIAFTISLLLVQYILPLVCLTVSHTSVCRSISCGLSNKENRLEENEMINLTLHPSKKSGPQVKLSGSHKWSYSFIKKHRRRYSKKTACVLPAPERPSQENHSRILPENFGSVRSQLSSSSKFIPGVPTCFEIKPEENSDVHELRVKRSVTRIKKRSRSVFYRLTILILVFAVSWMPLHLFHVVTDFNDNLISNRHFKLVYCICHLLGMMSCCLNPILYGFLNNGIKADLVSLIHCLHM
As to conditions: NPY5R pEC50, HEK-CNG cells; standard NPY; species (human or rat) not given. From the text: (§1) The NPY family of G-protein coupled receptors include Y1, Y2, Y4, and Y5 in humans and rats. […] Following agonist binding, the receptor-G protein complex activates a downstream intracellular signaling cascade which leads to inhibition of adenylate cyclase and a reduction in intracellular cAMP levels.
(§2) HEK-CNG cells stably expressing the human or rat Y1, Y2, Y4 or Y5 receptors (Codex Biosolutions) were used to characterize the functional potency of peptide agonists using the ActOne™ membrane potential dye kit (Codex Biosolutions). In addition to each NPY receptor, each cell line encodes a proprietary exogenous Cyclic Nucleotide-Gated (CNG) channel (Codex Biosolutions). The channel is activated by elevated intracellular levels of cAMP, resulting in ion flux and cell membrane depolarization which can be detected with a calcium sensitive dye or fluorescent membrane potential (MP) dye. Cells were carried in growth media containing 90% DMEM, 10% FBS, 250 mcg/mL G418 and 1 mcg/mL puromycin for no more than 15 passages.
(§3) Prior to testing, cells were counted and dispensed at 14,000 cells per well (Y1, Y4 and Y5) or 28,000 cells per well (Y2) into black 384 well Poly-D-Lysine plates at 20 mcL per well. Covered plates were then incubated at room temperature for 30 minutes followed by an overnight incubation at 37° C. in 5% C02. The following day, media was removed and wells were washed once with 40 mcL Dulbecco's phosphate buffered saline. […] Ten microliters of experimental peptide or peptide standard was added in triplicate to wells and incubated for 50 minutes at room temperature in the dark. Following this incubation step, plates were read again as before (final read).
(§4) NPY receptor activation, leading to a reduction in intracellular cAMP levels, is detected as a decrease in isoproteranol induced fluorescent signal. Peptide standard and experimental values were initially transformed in excel using the formula: final read/initial read. Transformed values were then normalized to receptor specific standard values (1×10−13 M minimum and 1×10−7 M maximum) using the formula: (test value−standard minavg)/(standard maxavg−standard minavg)*100. […] Normalized data was analyzed from triplicate tests and used to estimate the EC50 for each test peptide on each receptor. Data was fit in GraphPad Prism software (v8.2.1) using a 3-parameter logistic curve model: Y=Bottom+(Top−Bottom)/(1+10^((LogEC50−X))). EC50 values were converted to pEC50 values using the formula: pEC50=−Log(EC50).

Assay [2] has as its target human Y4 receptor (Homo sapiens, UniProt P50391). As to conditions: standard PP, species (human or rat) not given.
From the text: as §1, §2, §3, §4

Assay [3] deals with T2, human Y2 receptor (Homo sapiens, UniProt P49146).
T2 sequence (P49146 1-381): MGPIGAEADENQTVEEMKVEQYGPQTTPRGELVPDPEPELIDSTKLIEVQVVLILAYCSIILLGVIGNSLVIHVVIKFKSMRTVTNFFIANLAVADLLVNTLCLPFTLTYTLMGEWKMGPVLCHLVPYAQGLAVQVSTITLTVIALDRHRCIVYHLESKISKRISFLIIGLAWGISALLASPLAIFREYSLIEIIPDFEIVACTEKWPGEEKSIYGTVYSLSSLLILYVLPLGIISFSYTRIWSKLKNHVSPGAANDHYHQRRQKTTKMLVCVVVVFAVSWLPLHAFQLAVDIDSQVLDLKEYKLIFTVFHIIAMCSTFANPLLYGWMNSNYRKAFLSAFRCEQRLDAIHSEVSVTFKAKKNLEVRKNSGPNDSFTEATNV
As to conditions: NPY2R pEC50, HEK-CNG cells; standard PYY(3-36); species (human or rat) not given.
From the text: as §1, §2, §3, §4

pEC50: −log10 of the molar value. Starred links: 1 amine or outer side, 2 acyl side, 3 side chain; linkers in the order of their positions; H or OH if unused. Non-standard residues stand in square brackets, D forms with d. Residues, ends and D or L forms follow the SMILES beside them. Groups on a side chain read outwards from the residue. *: point of attachment. C20 diacid = O=C(O)CCCCCCCCCCCCCCCCCCC(=O)*; γGlu = O=C(O)[C@H](CCC(=O)[*:2])N[*:1]; NMeY = CN[C@@H](Cc1ccc(O)cc1)C(=O)O

Experimental findings from US12122816B2, “Long acting peptide tyrosine tyrosine (PYY) analogs and methods of use” (Intarcia Therapeutics, Inc., priority 2020, dated 2024) are described below.

Chain of human Y4 receptor (P50391 whole entry): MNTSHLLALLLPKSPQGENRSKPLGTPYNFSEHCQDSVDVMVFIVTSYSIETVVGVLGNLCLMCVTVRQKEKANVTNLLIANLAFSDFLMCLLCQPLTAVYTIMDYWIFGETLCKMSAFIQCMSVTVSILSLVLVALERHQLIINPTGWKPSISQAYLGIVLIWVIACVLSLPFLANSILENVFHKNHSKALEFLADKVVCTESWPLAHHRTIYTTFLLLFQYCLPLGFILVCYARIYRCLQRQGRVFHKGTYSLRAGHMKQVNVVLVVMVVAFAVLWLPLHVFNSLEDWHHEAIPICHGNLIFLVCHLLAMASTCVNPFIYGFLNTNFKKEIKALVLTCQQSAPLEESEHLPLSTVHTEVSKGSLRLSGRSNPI

For orientation: pEC50 means −log10 of the EC50, conventionally taken in molar units. A high value points to a small EC50. For `CC(C)C[C@H](NC(=O)[C@H](Cc1ccc(O)cc1)NC(=O)[C@H](Cc1c[nH]cn1)NC(=O)[C@H](CCCNC(=N)N)NC(=O)[C@H](C)NC(=O)[C@H](CC(=O)O)NC(=O)[C@H](C)NC(=O)[C@H](Cc1ccc(O)cc1)NC(=O)[C@H](Cc1ccc(O)cc1)NC(=O)[C@H](CCCNC(=N)N)NC(=O)[C@H](CC(N)=O)NC(=O)[C@H](Cc1c[nH]c2ccccc12)NC(=O)[C@H](CCC(=O)O)NC(=O)[C@H](CCCCNC(=O)CC[C@H](NC(=O)CC[C@H](NC(=O)CCCCCCCCCCCCCCCCCCC(=O)O)C(=O)O)C(=O)O)NC(=O)[C@@H]1CCCN1C(=O)[C@H](CO)NC(=O)[C@H](C)NC(=O)[C@H](CC(=O)O)NC(=O)[C@H](CCCCN)NC(=O)CNC(=O)[C@@H]1CCCN1C(=O)[C@H](C)NC(=O)[C@H](CCC(=O)O)NC(=O)[C@@H]1CCCN1C(=O)[C@H](CCCCN)NC(=O)[C@@H]1CCCN1)C(=O)N[C@@H](CC(N)=O)C(=O)N[C@@H](Cc1c[nH]c2ccccc12)C(=O)N[C@@H](CC(C)C)C(=O)N[C@H](C(=O)N[C@@H](CCCNC(=N)N)C(=O)N[C@@H](CCC(N)=O)C(=O)N[C@@H](CCCNC(=N)N)C(=O)N(C)[C@@H](Cc1ccc(O)cc1)C(N)=O)[C@@H](C)O` [Compound A8], the figures for the pEC50 in assay [1] and in assay [3] were 7.10 and 9.60, respectively. In assay [2], the “NPY4R pEC50” value is “inactive”.

For `CC(C)C[C@H](NC(=O)[C@H](CC(=O)O)NC(=O)[C@H](C)NC(=O)[C@H](Cc1ccc(O)cc1)NC(=O)[C@H](Cc1ccc(O)cc1)NC(=O)[C@H](CCCNC(=N)N)NC(=O)[C@H](CC(N)=O)NC(=O)[C@H](Cc1c[nH]c2ccccc12)NC(=O)[C@H](CCC(=O)O)NC(=O)[C@H](CCC(=O)O)NC(=O)[C@@H]1CCCN1C(=O)[C@H](CO)NC(=O)[C@H](C)NC(=O)[C@H](CC(=O)O)NC(=O)[C@H](CCCCN)NC(=O)CNC(=O)[C@@H]1CCCN1C(=O)[C@H](C)NC(=O)[C@H](CCC(=O)O)NC(=O)[C@@H]1CCCN1C(=O)[C@H](CCCCN)NC(=O)[C@@H]1CCCN1)C(=O)N[C@@H](CCCNC(=N)N)C(=O)N[C@@H](Cc1c[nH]cn1)C(=O)N[C@@H](CCCCNC(=O)CC[C@H](NC(=O)CC[C@H](NC(=O)CCCCCCCCCCCCCCCCCCC(=O)O)C(=O)O)C(=O)O)C(=O)N[C@@H](CC(C)C)C(=O)N[C@@H](CC(N)=O)C(=O)N[C@@H](Cc1c[nH]c2ccccc12)C(=O)N[C@@H](CC(C)C)C(=O)N[C@H](C(=O)N[C@@H](CCCNC(=N)N)C(=O)N[C@@H](CCC(N)=O)C(=O)N[C@@H](CCCNC(=N)N)C(=O)N[C@@H](Cc1ccccc1)C(N)=O)[C@@H](C)O` [Compound A52], the pEC50 in assay [1] was 8.00; in assay [3] it was 8.40. The “NPY4R pEC50” value in assay [2] was “inactive”.

Consider `CC(C)C[C@H](NC(=O)[C@H](Cc1ccc(O)cc1)NC(=O)[C@H](Cc1c[nH]cn1)NC(=O)[C@H](CCCNC(=N)N)NC(=O)[C@H](C)NC(=O)[C@H](CC(=O)O)NC(=O)[C@H](C)NC(=O)[C@H](Cc1ccc(O)cc1)NC(=O)[C@H](Cc1ccc(O)cc1)NC(=O)[C@H](CCCNC(=N)N)NC(=O)[C@H](CC(N)=O)NC(=O)[C@H](Cc1c[nH]c2ccccc12)NC(=O)[C@H](CCC(=O)O)NC(=O)[C@H](CCC(=O)O)NC(=O)[C@@H]1CCCN1C(=O)[C@H](CO)NC(=O)[C@H](C)NC(=O)[C@H](CC(=O)O)NC(=O)[C@H](CCCCN)NC(=O)CNC(=O)[C@@H]1CCCN1C(=O)[C@H](C)NC(=O)[C@H](CCC(=O)O)NC(=O)[C@@H]1CCCN1C(=O)[C@H](CCCCN)NC(=O)[C@@H]1CCCN1C(=O)[C@@H](N)CCCCNC(=O)CC[C@H](NC(=O)CC[C@H](NC(=O)CCCCCCCCCCCCCCCCCCC(=O)O)C(=O)O)C(=O)O)C(=O)N[C@@H](CC(N)=O)C(=O)N[C@@H](Cc1c[nH]c2ccccc12)C(=O)N[C@@H](CC(C)C)C(=O)N[C@H](C(=O)N[C@@H](CCCNC(=N)N)C(=O)N[C@@H](CCC(N)=O)C(=O)N[C@@H](CCCNC(=N)N)C(=O)N(C)[C@@H](Cc1ccc(O)cc1)C(N)=O)[C@@H](C)O` [Compound A4] (H-K([γGlu-γGlu-C20 diacid])PKPEAPGKDASPEEWNRYYADARHYLNWLTRQR[NMeY]-NH2; N-terminus assumed), for which the negative-log EC50 (pEC50) is 7.30 in assay [1] and 8.70 in assay [3]. Also, the “NPY4R pEC50” value in assay [2] is “inactive”.

As to `CC(C)C[C@H](NC(=O)[C@H](Cc1ccc(O)cc1)NC(=O)[C@H](Cc1c[nH]cn1)NC(=O)[C@H](CCCNC(=N)N)NC(=O)[C@H](C)NC(=O)[C@H](CC(=O)O)NC(=O)[C@H](C)NC(=O)[C@H](Cc1ccc(O)cc1)NC(=O)[C@H](Cc1ccc(O)cc1)NC(=O)[C@H](CCCNC(=N)N)NC(=O)[C@H](CC(N)=O)NC(=O)[C@H](CC(C)C)NC(=O)[C@H](CCC(=O)O)NC(=O)[C@H](CCC(=O)O)NC(=O)[C@@H]1CCCN1C(=O)[C@H](CO)NC(=O)[C@H](C)NC(=O)[C@H](CC(=O)O)NC(=O)[C@H](CCCCN)NC(=O)[C@H](CCCCNC(=O)CC[C@H](NC(=O)CC[C@H](NC(=O)CCCCCCCCCCCCCCCCCCC(=O)O)C(=O)O)C(=O)O)NC(=O)[C@@H]1CCCN1C(=O)[C@H](C)NC(=O)[C@H](CCC(=O)O)NC(=O)[C@@H]1CCCN1C(=O)[C@H](CCCCN)NC(=O)[C@@H]1CCCN1)C(=O)N[C@@H](CC(N)=O)C(=O)N[C@@H](Cc1c[nH]c2ccccc12)C(=O)N[C@@H](CC(C)C)C(=O)N[C@H](C(=O)N[C@@H](CCCNC(=N)N)C(=O)N[C@@H](CCC(N)=O)C(=O)N[C@@H](CCCNC(=N)N)C(=O)N(C)[C@@H](Cc1ccc(O)cc1)C(N)=O)[C@@H](C)O` [Compound A63] (H-PKPEAPK([γGlu-γGlu-C20 diacid])KDASPEELNRYYADARHYLNWLTRQR[NMeY]-NH2; N-terminus assumed), the “NPY4R pEC50” value in assay [2] was “inactive”. The molecule also gave a pEC50 in assay [3] of 7.50.

Regarding `CC(C)C[C@H](NC(=O)[C@H](Cc1ccc(O)cc1)NC(=O)[C@H](Cc1c[nH]cn1)NC(=O)[C@H](CCCNC(=N)N)NC(=O)[C@H](C)NC(=O)[C@H](CC(=O)O)NC(=O)[C@H](C)NC(=O)[C@H](Cc1ccc(O)cc1)NC(=O)[C@H](Cc1ccc(O)cc1)NC(=O)[C@H](CCCNC(=N)N)NC(=O)[C@H](CCCCNC(=O)CC[C@H](NC(=O)CC[C@H](NC(=O)CCCCCCCCCCCCCCCCCCC(=O)O)C(=O)O)C(=O)O)NC(=O)[C@H](Cc1c[nH]c2ccccc12)NC(=O)[C@H](CCC(=O)O)NC(=O)[C@H](CCC(=O)O)NC(=O)[C@@H]1CCCN1C(=O)[C@H](CO)NC(=O)[C@H](C)NC(=O)[C@H](CC(=O)O)NC(=O)[C@H](CCCCN)NC(=O)CNC(=O)[C@@H]1CCCN1C(=O)[C@H](C)NC(=O)[C@H](CCC(=O)O)NC(=O)[C@@H]1CCCN1C(=O)[C@H](CCCCN)NC(=O)[C@@H]1CCCN1)C(=O)N[C@@H](CC(N)=O)C(=O)N[C@@H](Cc1c[nH]c2ccccc12)C(=O)N[C@@H](CC(C)C)C(=O)N[C@H](C(=O)N[C@@H](CCCNC(=N)N)C(=O)N[C@@H](CCC(N)=O)C(=O)N[C@@H](CCCNC(=N)N)C(=O)N(C)[C@@H](Cc1ccc(O)cc1)C(N)=O)[C@@H](C)O` [Compound A9], the “NPY4R pEC50” value in assay [2] is “inactive”. In assay [3], the pEC50 is 9.60.
